Experimental data reported in patent US20230416248A1, “COMPOUNDS AND USES THEREOF” (Foghorn Therapeutics Inc., priority 2020, published 2023).
pIC50: −log10 of the molar value. Where two headings read alike, the source gives them in different places.

Columns and labels:
BRM = target: T1, BRM (Homo sapiens, UniProt P51531); assay: ATPase catalytic activity of BRM, ADP-Glo in vitro biochemical assay; conditions: for pIC50: 30 nM BRM, 400 μM ATP; for Ratio* (BRG1 IC50 (μM) divided by BRM IC50 (μM)): selectivity ratio BRG1 IC50 / BRM IC50
T1 construct: made in house; host or cells: High Five insect cells
Method in brief: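 Recombinant BRM (30 nM) hydrolysed 400 μM ATP with 20 nM salmon sperm DNA in pH 8 Tris buffer containing 20 mM MgCl2, 50 mM NaCl, 0.1% Tween-20 and 1 mM DTT, 1 h at room temperature. ADP formed was quantified by ADP-Glo luminescence.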

BRG-1 = target: T2, BRG-1 (Homo sapiens, UniProt P51532); assay: ATPase catalytic activity of BRG-1, ADP-Glo in vitro biochemical assay; conditions: 30 nM BRG-1, 400 μM ATP, read-out: BRG1 IC50
T2 construct: made in house; host or cells: High Five insect cells
Method in brief: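 Signal reflects ADP produced by the enzyme, quantified as luminescence after unused ATP is cleared and ADP is reconverted to ATP for the luciferase reaction; both steps run at room temperature, 40 and 60 min respectively.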

[1] = ATPase catalytic activity, ADP-Glo

T1 sequence (P51531 whole entry): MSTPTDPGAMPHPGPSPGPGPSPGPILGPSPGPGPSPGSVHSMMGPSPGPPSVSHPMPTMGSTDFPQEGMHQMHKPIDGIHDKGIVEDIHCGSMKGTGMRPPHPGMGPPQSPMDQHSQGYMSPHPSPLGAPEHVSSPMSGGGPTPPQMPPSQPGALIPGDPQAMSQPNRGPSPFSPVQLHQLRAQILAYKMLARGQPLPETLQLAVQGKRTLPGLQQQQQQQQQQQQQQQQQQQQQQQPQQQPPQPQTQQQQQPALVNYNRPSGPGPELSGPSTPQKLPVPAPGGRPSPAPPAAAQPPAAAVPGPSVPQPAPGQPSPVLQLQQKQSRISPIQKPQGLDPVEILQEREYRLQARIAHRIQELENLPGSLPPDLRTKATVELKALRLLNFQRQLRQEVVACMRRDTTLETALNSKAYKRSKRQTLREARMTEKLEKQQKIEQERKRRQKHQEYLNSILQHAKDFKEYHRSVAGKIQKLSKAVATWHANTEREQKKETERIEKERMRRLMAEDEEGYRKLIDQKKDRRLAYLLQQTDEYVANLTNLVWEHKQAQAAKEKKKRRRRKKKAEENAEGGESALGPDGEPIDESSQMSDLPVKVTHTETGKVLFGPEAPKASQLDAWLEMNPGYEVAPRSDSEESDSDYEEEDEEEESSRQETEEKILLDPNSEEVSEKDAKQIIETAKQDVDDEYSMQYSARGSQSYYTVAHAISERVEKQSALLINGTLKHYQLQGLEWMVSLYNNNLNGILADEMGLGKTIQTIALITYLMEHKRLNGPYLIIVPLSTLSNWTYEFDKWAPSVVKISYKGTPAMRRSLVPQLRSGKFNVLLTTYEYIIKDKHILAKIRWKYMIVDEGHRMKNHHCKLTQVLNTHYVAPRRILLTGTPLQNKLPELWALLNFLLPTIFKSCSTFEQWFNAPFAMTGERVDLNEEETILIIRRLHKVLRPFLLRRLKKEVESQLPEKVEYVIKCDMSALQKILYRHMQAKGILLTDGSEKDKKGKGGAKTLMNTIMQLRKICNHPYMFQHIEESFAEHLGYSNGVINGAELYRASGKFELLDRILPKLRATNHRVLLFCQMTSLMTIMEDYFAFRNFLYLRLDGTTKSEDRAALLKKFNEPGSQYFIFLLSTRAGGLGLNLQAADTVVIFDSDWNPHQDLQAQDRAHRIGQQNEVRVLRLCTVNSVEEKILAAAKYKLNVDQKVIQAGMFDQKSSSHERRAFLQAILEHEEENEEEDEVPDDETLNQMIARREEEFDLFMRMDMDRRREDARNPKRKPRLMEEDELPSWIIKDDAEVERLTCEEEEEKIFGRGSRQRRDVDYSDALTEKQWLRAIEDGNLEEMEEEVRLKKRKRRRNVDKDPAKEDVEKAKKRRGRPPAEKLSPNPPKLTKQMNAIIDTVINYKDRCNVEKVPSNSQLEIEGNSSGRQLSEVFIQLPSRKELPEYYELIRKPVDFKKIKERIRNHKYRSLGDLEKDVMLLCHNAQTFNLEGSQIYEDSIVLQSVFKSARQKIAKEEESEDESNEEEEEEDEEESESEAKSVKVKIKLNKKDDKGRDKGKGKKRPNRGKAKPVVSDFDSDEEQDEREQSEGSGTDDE
T2 sequence (P51532 whole entry): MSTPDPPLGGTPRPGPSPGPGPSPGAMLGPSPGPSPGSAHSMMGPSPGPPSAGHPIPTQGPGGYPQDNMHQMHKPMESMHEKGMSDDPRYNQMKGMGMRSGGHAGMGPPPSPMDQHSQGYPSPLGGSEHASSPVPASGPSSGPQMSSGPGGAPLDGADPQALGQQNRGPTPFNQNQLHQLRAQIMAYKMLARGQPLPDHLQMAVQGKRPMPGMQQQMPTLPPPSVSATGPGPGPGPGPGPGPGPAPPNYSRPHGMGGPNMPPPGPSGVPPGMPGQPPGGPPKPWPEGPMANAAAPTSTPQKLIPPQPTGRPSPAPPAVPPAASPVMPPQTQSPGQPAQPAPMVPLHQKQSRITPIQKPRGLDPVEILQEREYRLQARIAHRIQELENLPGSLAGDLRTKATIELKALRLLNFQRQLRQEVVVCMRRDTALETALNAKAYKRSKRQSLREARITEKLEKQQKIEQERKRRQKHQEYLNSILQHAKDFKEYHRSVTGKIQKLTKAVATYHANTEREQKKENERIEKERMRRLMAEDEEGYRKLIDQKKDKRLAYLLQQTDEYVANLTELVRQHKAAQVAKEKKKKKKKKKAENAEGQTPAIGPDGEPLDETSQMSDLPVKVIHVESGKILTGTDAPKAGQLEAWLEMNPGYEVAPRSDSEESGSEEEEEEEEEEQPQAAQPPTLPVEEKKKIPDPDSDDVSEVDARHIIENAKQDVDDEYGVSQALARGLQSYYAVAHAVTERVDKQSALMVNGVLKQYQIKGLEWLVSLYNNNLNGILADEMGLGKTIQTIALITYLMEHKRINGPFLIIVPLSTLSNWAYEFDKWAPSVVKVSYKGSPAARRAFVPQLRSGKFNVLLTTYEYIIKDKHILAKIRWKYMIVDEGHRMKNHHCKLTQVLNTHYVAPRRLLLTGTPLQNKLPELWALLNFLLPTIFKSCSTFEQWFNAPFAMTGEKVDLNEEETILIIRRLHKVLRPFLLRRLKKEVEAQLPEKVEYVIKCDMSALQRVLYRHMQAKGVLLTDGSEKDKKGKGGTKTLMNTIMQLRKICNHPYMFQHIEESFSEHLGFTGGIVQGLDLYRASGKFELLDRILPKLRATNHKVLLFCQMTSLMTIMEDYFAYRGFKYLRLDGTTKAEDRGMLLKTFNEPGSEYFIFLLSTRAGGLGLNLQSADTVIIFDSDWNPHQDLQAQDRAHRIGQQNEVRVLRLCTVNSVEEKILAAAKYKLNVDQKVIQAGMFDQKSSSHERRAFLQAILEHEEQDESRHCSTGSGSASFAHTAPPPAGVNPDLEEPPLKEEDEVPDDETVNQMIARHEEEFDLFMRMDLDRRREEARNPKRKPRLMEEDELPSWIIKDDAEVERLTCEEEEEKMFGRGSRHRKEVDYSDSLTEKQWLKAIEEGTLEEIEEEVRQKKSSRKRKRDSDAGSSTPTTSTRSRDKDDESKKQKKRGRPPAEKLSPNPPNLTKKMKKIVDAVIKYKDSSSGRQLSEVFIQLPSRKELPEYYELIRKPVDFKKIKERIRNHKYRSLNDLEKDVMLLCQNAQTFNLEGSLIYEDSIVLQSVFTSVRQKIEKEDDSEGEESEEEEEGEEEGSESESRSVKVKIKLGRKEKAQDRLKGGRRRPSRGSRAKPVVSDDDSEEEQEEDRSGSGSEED

| Compound | pIC50 (BRM; ADP-Glo ATPase assay) | Ratio* (BRM; ratio BRG1 IC50 / BRM IC50) | pIC50 (BRG-1; ADP-Glo ATPase assay) | pIC50 (BRM; [1]) | Ratio* (BRM; ratio of BRG1 IC50 to BRM IC50) | pIC50 (BRG-1; [1]) | Ratio* (BRG1 IC50 (μM) divided by BRM IC50 (μM)) (BRM) |
| --- | --- | --- | --- | --- | --- | --- | --- |
| O=C(NCc1cc2nc(N3CCCc4ccc(OC5CC5)nc43)ccc2cn1)c1ccc2c(c1)S(=O)(=O)CCOC2 [Compound 746] | 7.65 | 25.51 | 6.25 |  |  |  |  |
| COc1cccc(-c2ccc3cnc(CNC(=O)c4ccc5c(c4)S(=O)(=O)CCOC5)cc3n2)n1 [Compound 487] |  |  |  | 7.66 | 15.66 | 6.46 |  |
| C[C@@H]1CN(c2nccc(-c3ccc4cnc(CNC(=O)c5ccc(Cl)c(S(C)(=O)=O)c5)cc4n3)n2)C[C@H](C)O1 [Compound 180] | 7.75 |  | 6.57 |  |  |  | 15.48 |
| O=C(NCc1cc2nc(-c3ccccc3OCC3CC3)ccc2cn1)c1ccc2c(c1)S(=O)(=O)CCOC2 [Compound 815] | 6.72 | 7.51 | 5.84 |  |  |  |  |
| O=C(NCc1cc2nc(-c3ccccc3Cl)ccc2cn1)c1ccc2c(c1)S(=O)(=O)CCOC2 [Compound 247] | 6.49 |  | 5.70 |  |  |  | 6.16 |
| C[C@@H]1CN(c2cccc(-c3ccc4cnc(CNC(=O)c5ccc6c(c5)S(=O)(=O)[C@@H](C)C6)cc4n3)n2)C[C@H](C)O1 [Compound 500] |  |  |  | 6.68 | 16.91 | 5.45 |  |
| CC1CN(c2cccc(-c3ccc4cnc(CNC(=O)c5ccc6c(c5)S(=O)(=O)C(C)COC6C)cc4n3)n2)CC(C)O1 (stereo not drawn) [Compound 540] |  |  |  | 7.51 | 20.63 | 6.20 |  |
| CN(CC1(F)COC1)c1cccc(-c2ccc3cnc(CNC(=O)c4ccc5c(c4)S(=O)(=O)CCOC5)cc3n2)n1 [Compound 314] |  |  |  | 7.34 | 10.51 | 6.32 |  |
| O=C(NCc1cc2nc(N3CCOc4cc(C5CC5)cnc43)ccc2cn1)c1ccc2c(c1)S(=O)(=O)CCOC2 [Compound 503] |  |  |  | 8.24 | 12.62 | 7.13 |  |
| CO[C@H]1COc2c(-c3ccc4cnc(CNC(=O)c5ccc6c(c5)S(=O)(=O)CCOC6)cc4n3)cccc2N(C)C1 [Compound 613] |  |  |  | 6.67 | 10.41 | 5.65 |  |
| COCCN1CCOc2c(-c3ccc4cnc(CNC(=O)c5ccc6c(c5)S(=O)(=O)CCOC6)cc4n3)ccc(F)c21 [Compound 402] |  |  |  | 8.24 | 10.67 | 7.22 |  |
| C[C@@H]1CN(c2cccc(-c3ccc4cnc(CNC(=O)c5ccc(Cl)c(S(C)(=O)=O)c5)cc4n3)n2)C[C@H](C)O1 [Compound 213] | 8.02 |  | 6.88 |  |  |  | 13.94 |
| O=C(NCc1cc2nc(-c3cccc(OC(F)F)c3)ccc2cn1)c1ccc2c(c1)S(=O)(=O)CCOC2 [Compound 278] | 7.13 |  | 5.72 |  |  |  | 25.91 |
| Cc1ccc2c(n1)N(c1ccc3cnc(CNC(=O)c4ccc5c(c4)S(=O)(=O)[C@@H](C)COC5)cc3c1)CCO2 [Compound 680] |  |  |  | 7.49 | 29.69 | 6.01 |  |
| COc1nc(C(F)F)ccc1-c1ccc2cnc(CNC(=O)c3cc(F)c4c(c3)S(=O)(=O)CCOC4)cc2n1 [Compound 404] |  |  |  | 8.08 | 17.03 | 6.85 |  |
| CC(F)(F)c1cccc(-c2ccc3cnc(CNC(=O)c4ccc5c(c4)S(=O)(=O)CCOC5)cc3n2)n1 [Compound 281] | 7.08 |  | 5.78 |  |  |  | 19.92 |
| COC[C@@H]1C[C@H]1N(C)c1cccc(-c2ccc3cnc(CNC(=O)c4ccc5c(c4)S(=O)(=O)CCOC5)cc3n2)n1 [Compound 311] |  |  |  | 7.66 | 12.86 | 6.55 |  |
| C[C@@H]1CCc2ccc(-c3ccc4cnc(CNC(=O)c5ccc6c(c5)S(=O)(=O)CCOC6)cc4n3)nc2N1C [Compound 467] |  |  |  | 7.63 | 4.32 | 6.99 |  |

| Compound | pIC50 (BRM; ADP-Glo ATPase assay) | Ratio* (BRM; ratio BRG1 IC50 / BRM IC50) | pIC50 (BRG-1; ADP-Glo ATPase assay) | pIC50 (BRM; [1]) | Ratio* (BRM; ratio of BRG1 IC50 to BRM IC50) | pIC50 (BRG-1; [1]) | Ratio* (BRG1 IC50 (μM) divided by BRM IC50 (μM)) (BRM) |
| --- | --- | --- | --- | --- | --- | --- | --- |
| CN1CCN(c2ccc3cnc(CNC(=O)c4ccc5c(c4)S(=O)(=O)CCOC5)cc3n2)c2ncccc21 [Compound 442] |  |  |  | 7.79 | 10.89 | 6.75 |  |
| C[C@@H]1COCCN1c1cccc(-c2ccc3cnc(CNC(=O)c4ccc5c(c4)S(=O)(=O)CCOC5)cc3n2)n1 [Compound 181] | 7.39 |  | 6.43 |  |  |  | 9.06 |
| COCc1ccc2c(c1F)N(c1ccc3cnc(CNC(=O)c4ccc5c(c4)S(=O)(=O)CCOC5)cc3n1)CCC2 [Compound 711] | 8.03 | 27.53 | 6.59 |  |  |  |  |
| O=C(NCc1cc2nc(-c3cccc(C4(F)CC(F)(F)C4)n3)ccc2cn1)c1ccc2c(c1)S(=O)(=O)CCOC2 [Compound 170] | 6.96 |  | 6.16 |  |  |  | 6.33 |
| COCCn1cc2cccc(-c3ccc4cnc(CNC(=O)c5ccc6c(c5)S(=O)(=O)CCOC6)cc4n3)c2n1 [Compound 701] |  |  |  | 7.06 | 9.96 | 6.06 |  |
| CCO[C@H](C)c1ccc2c(n1)N(c1ccc3cnc(CNC(=O)c4ccc5c(c4)S(=O)(=O)CCOC5)cc3n1)CCC2 [Compound 636] |  |  |  | 6.57 | 15.73 | 5.37 |  |
| CO[C@H]1C[C@@H]1N(C)c1cccc(-c2ccc3cnc(CNC(=O)c4ccc5c(c4)S(=O)(=O)[C@@H](C)COC5)cc3n2)n1 [Compound 670] |  |  |  | 8.00 | 8.79 | 7.05 |  |
| O=C(NCc1cc2nc(N3CCCc4cc5c(cc43)OCCO5)ccc2cn1)c1ccc2c(c1)S(=O)(=O)CCOC2 [Compound 793] | 7.93 | 11.88 | 6.85 |  |  |  |  |
| C[C@@H]1CN(c2cccc(-c3ccc4cnc(CNC(=O)c5cc(C(F)F)c6c(c5)S(=O)(=O)CCOC6)cc4n3)n2)C[C@H](C)O1 [Compound 355] |  |  |  | 8.06 | 7.36 | 7.19 |  |
| O=C(NCc1cc2nc(-c3cccc(N4CC5CC(C4)O5)n3)ccc2cn1)c1ccc2c(c1)S(=O)(=O)CCOC2 [Compound 276] | 7.09 |  | 6.23 |  |  |  | 7.14 |
| CC1OCCS(=O)(=O)c2cc(C(=O)NCc3cc4nc(-c5cccc(N6C[C@@H](C)O[C@@H](C)C6)n5)ccc4cn3)ccc21 (stereo partly drawn) [Compound 54] | 8.02 |  | 7.35 |  |  |  | 4.70 |
| O=C(NCc1cc2nc(-c3cccc(N4CC[C@H](F)C4)n3)ccc2cn1)c1ccc2c(c1)S(=O)(=O)CCOC2 [Compound 224] | 7.59 |  | 6.44 |  |  |  | 14.09 |
| O=C(NCc1cc2nc(N3CCCc4ccc(C(F)F)cc43)ccc2cn1)c1ccc2c(c1)S(=O)(=O)CCOC2 [Compound 532] |  |  |  | 8.19 | 18.84 | 6.92 |  |
| C[C@H]1CN(c2cccc(-c3ccc4cnc(CNC(=O)c5ccc(C(F)F)c(S(C)(=O)=O)c5)cc4n3)n2)C[C@H](C)O1 [Compound 162] | 7.42 |  | 6.25 |  |  |  | 14.67 |
| Cc1cnc2c(c1)N(C1CC1)CCN2c1ccc2cnc(CNC(=O)c3ccc4c(c3)S(=O)(=O)CCOC4)cc2n1 [Compound 748] | 7.92 | 12.75 | 6.81 |  |  |  |  |
| C[C@@H]1CN(c2cccc(-c3ccc4cnc(CNC(=O)c5ccc(C(F)F)c(S(C)(=O)=O)c5)cc4n3)n2)C[C@H](C)O1 [Compound 206] | 8.10 |  | 6.96 |  |  |  | 13.71 |
| CC1COCc2ccc(C(=O)NCc3cc4nc(-c5cccc(N6C[C@@H](C)O[C@@H](C)C6)n5)ccc4cn3)cc2S1(=O)=O (stereo partly drawn) [Compound 319] |  |  |  | 7.68 | 15.59 | 6.48 |  |
| O=C(NCc1cc2nc(-c3cccc(N4CCOCC(F)(F)C4)n3)ccc2cn1)c1ccc2c(c1)S(=O)(=O)CCOC2 [Compound 341] |  |  |  | 7.60 | 7.37 | 6.73 |  |
